# US12281122B1, “PI3K inhibitors” (Cogent Biosciences, Inc., priority 2023, dated 2025)
# How the values were obtained:
# [1] = system: T47D (PI3Kα-H1047R) cell line; experiment: HTRF phospho-AKT(S473) cell assay in T47D cells; type: cell-based, human
# Protocol: (§1) Compounds in the present disclosure were tested in a cell based HTRF phospho-AKT(S473) (CisBio/Revvity) assay in human breast cancer cell lines as a measurement of PIK3CA activity through measuring AKT, a downstream effector. The activity of mutant PI3Kα-H1047R and PI3Kα-Wild Type was measured in the T47D (PI3Kα-H1047R) and SKBR3 (PI3Kα-Wild Type) cell lines, respectively. T47D cells were plated at 20,000 cells per well in 50 μL in RPMI medium supplemented with 10% FBS and 0.2 units/mL insulin, in 384 well plates. SKBR3 cells were plated at 25,000 cells per well in 50 μL in McCoy's 5A medium supplemented with 10% FBS, in 384 well plates. Cells were plated using a Combi Multidrop reagent dispenser (ThermoFisher), and placed in 5% CO2, 37° C. incubator overnight to adhere.
# (§2) The next day, cells were treated with either compounds or vehicle (DMSO) in a 12-fold dose response curve of 1:3 dilutions, with 5 μM and 10 μM as the top concentrations for the T47D and SKBR3 cell lines, respectively. Compound treatment was facilitated via the D300e digital dispenser (Tecan), with a maximum DMSO concentration of 0.5%. Following compound addition, cell plates were incubated for 2 hours in 5% CO2, 37° C. incubator. The SKBR3 cells were stimulated and treated with 70 ng/ml PDGF-BB ligand (ThermoFisher) for the remaining 15 minutes of the incubation. Following compound incubation, compound and media was aspirated from the cells and 25 μL of supplemented lysis buffer was added per well, and incubated for 45 minutes at room temperature, shaking at 600 rpm. Next, 16 μL of cell lysate was added to a 384 well low volume ProxyPlate (Perkin Elmer/Revvity) mixed with 4 μL of HTRF antibodies (1:1 Eu Cryptate+d2 Cryptate). HTRF supplemented lysis buffer and antibody reagents were used from the phosphor-AKT(S473) HTRF assay kit (CisBio/Revvity), following manufacturers protocol recommendations. Plates were sealed and incubated at 4° C. overnight.
# (§3) The following day, plates were centrifuged for 1 minute at 1000 rpm, and read on a PHERAstar plate reader. IC50 values were calculated using Spotfire software.
# [2] = system: SKBR3 (PI3Kα-Wild Type) cell line; experiment: HTRF phospho-AKT(S473) cell assay in SKBR3 cells; type: cell-based, human
# Protocol: as §1, §2, §3
# [3] = Homo sapiens; HTRF phospho-AKT(S473), T47D (PI3Kα-H1047R) cells, 2 hours compound incubation
# [4] = Homo sapiens, SK-BR-3; HTRF phospho-AKT(S473), SKBR3 (PI3Kα-Wild Type) cells, 2 hours compound incubation, PDGF-BB stimulated
# [5] = Homo sapiens; T47D (PI3Kα-H1047R) cells, HTRF phospho-AKT(S473), 2 hours compound incubation
# [6] = Homo sapiens, SK-BR-3; SKBR3 (PI3Kα-Wild Type) cells, HTRF phospho-AKT(S473), 2 hours compound incubation, PDGF-BB stimulated
SMILES,"IC50 [1, 3] [nM]","IC50 [2, 4] [nM]","IC50 [1, 5] [nM]","IC50 [2, 6] [nM]"
"Cc1cc([C@@H](C)Nc2ccc(Cl)nc2C(=O)NS(C)(=O)=O)c2nc(N3CC4C[C@H]3CN4c3ccc(N(C)C)cc3)n(C)c(=O)c2c1 (stereo in doubt) [Compound 743, 6-chloro-3-(((R)-1-(2-((1S,4R)-5-(4-(dimethylamino)phenyl)-2,5-diazabicyclo [2.2.1]heptan-2-yl)-3,6-dimethyl-4-oxo-3,4-dihydroquinazolin-8-yl)ethyl)amino)-N-(methylsulfonyl) picolinamide]",1000 to 5000,≥ 5000,–,–
"CO[C@H]1CCC2(CCN(c3nc4c([C@@H](C)Nc5ccc(Cl)nc5C(=O)NS(C)(=O)=O)cc(C)cc4c(=O)n3C)CC2)OC1 (mixture of isomers) [Compound 721, 6-chloro-3-(((R)-1-(2-((RS)-3-methoxy-1-oxa-9-azaspiro[5.5]undecan-9-yl)-3,6-dimethyl-4-oxo-3,4-dihydroquinazolin-8-yl)ethyl)amino)-N-(methylsulfonyl) picolinamide]",250 to 500,≥ 5000,–,–
"Cc1cc([C@@H](C)Nc2ccc(Cl)nc2C(=O)NS(C)(=O)=O)c2nc(N3CCC(c4cc(F)cnc4C)CC3)n(C)c(=O)c2c1 [Compound 436, (R)-6-chloro-3-((1-(2-(4-(5-fluoro-2-methylpyridin-3-yl)piperidin-1-yl)-3,6-dimethyl-4-oxo-3,4-dihydroquinazolin-8-yl)ethyl)amino)-N-(methylsulfonyl) picolinamide]",–,–,< 250,1000 to 5000
"Cc1cc([C@@H](C)Nc2ccc(Cl)nc2C(=O)NS(C)(=O)=O)c2nc(N3CCc4c(cnn4CC(F)(F)F)C3)n(C)c(=O)c2c1 [Compound 221, (R)-6-chloro-3-((1-(3,6-dimethyl-4-oxo-2-(1-(2,2,2-trifluoroethyl)-1,4,6,7-tetrahydro-5H-pyrazolo[4,3-c]pyridin-5-yl)-3,4-dihydroquinazolin-8-yl)ethyl)amino)-N-(methylsulfonyl) picolinamide]",–,–,< 250,1000 to 5000
"C[C@@H](Nc1ccc(Cl)nc1C(=O)NS(C)(=O)=O)c1cc(F)cc2c(=O)n(C)c(N3C[C@@H]4[C@H](C3)[C@H]4c3ccnn3C)nc12 [Compound 374, 6-chloro-3-(((R)-1-(6-fluoro-3-methyl-2-((1R,5S,6R)-6-(1-methyl-1H-pyrazol-5-yl)-3-azabicyclo[3.1.0]hexan-3-yl)-4-oxo-3,4-dihydroquinazolin-8-yl)ethyl)amino)-N-(methylsulfonyl) picolinamide]",–,–,< 250,1000 to 5000
"Cc1cc([C@@H](C)Nc2ccc(Cl)nc2C(=O)NS(C)(=O)=O)c2nc(N3CCC(c4nc(C)no4)CC3)n(C)c(=O)c2c1 [Compound 595, (R)-6-chloro-3-((1-(3,6-dimethyl-2-(4-(3-methyl-1,2,4-oxadiazol-5-yl)piperidin-1-yl)-4-oxo-3,4-dihydroquinazolin-8-yl)ethyl)amino)-N-(methylsulfonyl) picolinamide]",< 250,1000 to 5000,–,–
"COc1nccnc1C1CCN(c2nc3c([C@@H](C)Nc4ccc(Cl)nc4C(=O)NS(C)(=O)=O)cc(C)cc3c(=O)n2C)CC1 [Compound 563, (R)-6-chloro-3-((1-(2-(4-(3-methoxypyrazin-2-yl)piperidin-1-yl)-3,6-dimethyl-4-oxo-3,4-dihydroquinazolin-8-yl)ethyl)amino)-N-(methylsulfonyl) picolinamide]",250 to 500,≥ 5000,–,–
"Cc1cc([C@@H](C)Nc2ccc(Cl)nc2C(=O)NS(C)(=O)=O)c2nc(N3Cc4cn(-c5ccc(C#N)cc5)nc4C3)n(C)c(=O)c2c1 [Compound 239, (R)-6-chloro-3-((1-(2-(2-(4-cyanophenyl)-2,6-dihydropyrrolo[3,4-c]pyrazol-5(4H)-yl)-3,6-dimethyl-4-oxo-3,4-dihydroquinazolin-8-yl)ethyl)amino)-N-(methylsulfonyl) picolinamide]",–,–,< 250,1000 to 5000
"CC(=O)N1CCN(c2ccc(-c3nc4c([C@@H](C)Nc5ccc(Cl)nc5C(=O)NS(C)(=O)=O)cc(C)cc4c(=O)n3C)cn2)CC1 [Compound 175, (R)-3-((1-(2-(6-(4-acetylpiperazin-1-yl)pyridin-3-yl)-3,6-dimethyl-4-oxo-3,4-dihydroquinazolin-8-yl)ethyl)amino)-6-chloro-N-(methylsulfonyl) picolinamide]",–,–,< 250,1000 to 5000
"Cc1cc([C@@H](C)Nc2ccc(Cl)nc2C(=O)NS(C)(=O)=O)c2nc([C@@H]3CCCN(c4ccccn4)C3)n(C)c(=O)c2c1 (relative stereo) [Compound 212, 6-chloro-3-(((R)-1-(3,6-dimethyl-4-oxo-2-((R*)-1-(pyridin-2-yl)piperidin-3-yl)-3,4-dihydroquinazolin-8-yl)ethyl)amino)-N-(methylsulfonyl) picolinamide]",–,–,< 250,1000 to 5000
"Cc1cc([C@@H](C)Nc2ccc(Cl)nc2C(=O)NS(C)(=O)=O)c2nc(N3C[C@H]4C[C@@H](c5cnn(C)c5)[C@@H]3C4)n(C)c(=O)c2c1 [Compound 321, 6-chloro-3-(((R)-1-(3,6-dimethyl-2-((1S,4S,6RS)-6-(1-methyl-1H-pyrazol-4-yl)-2-azabicyclo[2.2.1]heptan-2-yl)-4-oxo-3,4-dihydroquinazolin-8-yl)ethyl)amino)-N-(methylsulfonyl) picolinamide]",–,–,250 to 500,1000 to 5000
"Cc1cc([C@@H](C)Nc2ccc(Cl)nc2C(=O)NS(C)(=O)=O)c2nc(-c3ccc(OC[C@@H]4CCN(C)CC4(F)F)nc3)n(C)c(=O)c2c1 [Compound 390, 6-chloro-3-(((R)-1-(2-(6-(((S)-3,3-difluoro-1-methylpiperidin-4-yl)methoxy)pyridin-3-yl)-3,6-dimethyl-4-oxo-3,4-dihydroquinazolin-8-yl)ethyl)amino)-N-(methylsulfonyl) picolinamide]",–,–,< 250,≥ 5000
"Cc1cc([C@@H](C)Nc2ccc(Cl)nc2C(=O)NS(C)(=O)=O)c2nc(-c3ccc(-c4ncc(C#N)cc4C)c(F)c3)n(C)c(=O)c2c1 [Compound 799, (R)-6-chloro-3-((1-(2-(4-(5-cyano-3-methylpyridin-2-yl)-3-fluorophenyl)-3,6-dimethyl-4-oxo-3,4-dihydroquinazolin-8-yl)ethyl)amino)-N-(methylsulfonyl) picolinamide]",250 to 500,≥ 5000,–,–
"Cc1cc([C@@H](C)Nc2ccc(Cl)nc2C(=O)NS(C)(=O)=O)c2nc(N3[C@@H]4CC[C@H]3C[C@H](c3cnn(C)c3)C4)n(C)c(=O)c2c1 [Compound 298, 6-chloro-3-(((R)-1-(3,6-dimethyl-2-((1R,3S,5S)-3-(1-methyl-1H-pyrazol-4-yl)-8-azabicyclo[3.2.1]octan-8-yl)-4-oxo-3,4-dihydroquinazolin-8-yl)ethyl)amino)-N-(methylsulfonyl) picolinamide]",–,–,< 250,≥ 5000
"Cc1cc([C@@H](C)Nc2ccc(Cl)nc2C(=O)NS(C)(=O)=O)c2nc(N3CCC(c4nccc(C)n4)CC3)n(C)c(=O)c2c1 [Compound 468, (R)-6-chloro-3-((1-(3,6-dimethyl-2-(4-(4-methylpyrimidin-2-yl)piperidin-1-yl)-4-oxo-3,4-dihydroquinazolin-8-yl)ethyl)amino)-N-(methylsulfonyl) picolinamide]",< 250,≥ 5000,–,–
"Cc1cc([C@@H](C)Nc2ccc(Cl)nc2C(=O)NS(C)(=O)=O)c2nc(-c3ccnc(O[C@@H]4CCN(C)CC4(F)F)c3)n(C)c(=O)c2c1 [Compound 809, 6-chloro-3-(((R)-1-(2-(2-(((R)-3,3-difluoro-1-methylpiperidin-4-yl)oxy)pyridin-4-yl)-3,6-dimethyl-4-oxo-3,4-dihydroquinazolin-8-yl)ethyl)amino)-N-(methylsulfonyl) picolinamide]",250 to 500,≥ 5000,–,–
"Cc1cc([C@@H](C)Nc2ccc(Cl)nc2C(=O)NS(C)(=O)=O)c2nc(N3C[C@@H]4CC(c5cnc(C)nc5)C[C@H]4C3)n(C)c(=O)c2c1 (mixture of isomers) [Compound 762, 6-chloro-3-(((R)-1-(3,6-dimethyl-2-((3aRS,6aRS)-5-(2-methylpyrimidin-5-yl)hexahydrocyclopenta [c]pyrrol-2(1H)-yl)-4-oxo-3,4-dihydroquinazolin-8-yl)ethyl)amino)-N-(methylsulfonyl) picolinamide]",250 to 500,≥ 5000,–,–
